# Data from patent US8367735B2, “Pharmaceutical compositions” (Crawford Healthcare Holdings Limited, priority 2006, dated 2013).
# Key:
# [1] = system: human keratinocytes; test: LD50 in human keratinocytes; assay type: cell-based
# Description: (§1) Cell Proliferation Assay. HaCaT cells (2.5×10^4 cells/well) were seeded in 24-well plates. After 24 hours, the medium was removed and the test compounds were added at different concentrations. At 48 hours after the addition of the compounds, cell proliferation was determined by counting the number of viable cells in a hemocytometer. Cell viability was determined by the Trypan blue vital dye exclusion technique. IC50 values on the increase in the number of cells over the number of seeded cells were calculated at 48 hours after treatment.
# [2] = system: Human keratinocytes (HaCaT); test: HaCaT cell proliferation assay (viable cell count); assay type: cell-based; settings: 48 hours after treatment
# Description: (§2) Cell Lines and Treatments. Human keratinocytes (HaCaT) were grown routinely in DMEM supplemented with 10% FBS and 2 mM L-glutamine at 37° C. in a 5% CO2 humidified atmosphere. Human umbilical vein endothelial cells (HUVEC), obtained from Clonetics (San Diego, Calif., USA), were cultured in EGM medium (Clonetics, San Diego, Calif., USA) supplemented with 2% FBS, […], […] hydrocortisone, […] gentamicin, 3 mg/ml BBE (bovine brain extract) at 37° C. in a 5% CO2 humidified atmosphere.
# Compounds. CTM-208 was dissolved in absolute ethanol or DMSO (0.1 M stock solution), stored at −20° C., and diluted in the culture medium immediately before use. Control cells received the same amount of DMSO diluent that had no effect on cell proliferation at the concentrations tested. Methotrexate was dissolved in DMSO. […]
# as §1, with “HaCaT cells (2.5×10^4 cells/well) were seeded in 24-well plates. After 24 hours, the medium was removed and the test compounds were added at different concentrations.” left out
# Effect of CTM-208 on human keratinocyte proliferation. […] At 48 hours after the addition of the compounds, cell proliferation was determined by counting the number of viable cells in a hemocytometer. […]
# [3] = system: HSF; test: EMSA of HSF induction in human keratinocytes; assay type: cell-based
# [4] = system: human endothelial cells; test: LD50 in human endothelial cells; assay type: cell-based
# [5] = system: human Burkitt lymphoma HS-Sultan cells; test: Annexin V staining apoptosis, HS-Sultan cells; assay type: cell-based
# Description: (§3) Cell Culture and Treatments. Human breast cancer MDA-MB-231, human melanoma SK-MEL-28, and human Burkitt lymphoma HS-Sultan cell lines, obtained from ATCC (Manassas, Va.), were grown at 37° C. in 5% CO2 and 95% humidified air in cell culture medium containing 10% fetal calf serum, 2 mM glutamine and antibiotics ([…] penicillin and 0.1 mg/ml streptomycin) (Life Technologies, Inc.). Each compound to be assayed was dissolved in absolute ethanol and diluted in the culture medium immediately before use. Control cells received the same amount of ethanol diluent. Cells were incubated with the assay compound or control diluent for 8 hours, unless indicated otherwise. Cell viability was determined by vital-dye exclusion assay (Trypan blue, 0.1%).
# (§4) Flow Cytometry. For Annexin V staining, cells were washed once with PBS and resuspended in staining buffer (10 mM HEPES pH 7.4, 140 mM NaCl, 2.5 mM CaCl) with […] of AnnexinV-PI (AnnexinV-FITC, Becton-Dickinson). After 15 minutes of incubation in the dark, cells were directly analyzed in a FACScan (Becton-Dickinson). Cells were evaluated with CellQuest Program (Becton-Dickinson). Data were plotted using a histogram algorithm, in which the intensities of Annexin V-positive cells were represented as percent of untreated control. Exemplary data obtained from human Burkitt lymphoma HS-Sultan cells and human melanoma SK-MEL-28 cells (24 hour incubation for SK-MEL-28 cells) are provided in FIGS. 1 and 2, respectively.
# Electrophoretic Mobility Shift Assay (EMSA). […] Complexes were analyzed by nondenaturing 4% polyacrylamide gel electrophoresis. […] Quantitative evaluation of NF-κB-κB complex formation was determined by Typhoon-8600 Imager (Molecular Dynamics), using ImageQuant software (MDP analysis). […]
# [6] = system: human breast cancer MDA-MB-231 cells; test: DNA fragmentation (Cell-Death-Detection ELISA), MDA-MB-231 cells; assay type: cell-based; settings: 5 μM, 48 hour incubation, FIG. 3
# Description: as §3
# DNA Fragmentation. Cytoplasmic histone-bound DNA fragments (mono- and oligo-nucleosomes) generated during apoptosis were measured by Cell-Death-Detection ELISA kit (Roche Diagnostics, Mannheim, Germany), according to the manufacturer's instructions. Histone-associated DNA fragments were quantified spectrophotometrically using antibodies against DNA and histones in a colorimetric assay. Enrichment in cytoplasmic nucleosomes was expressed as fold-induction of levels in untreated controls. […] At 5 μM CTM-208, apoptosis was increased more than 35-fold over the untreated control.
# [7] = system: Human endothelial cells (HUVEC); test: HUVEC DNA synthesis (BrdU incorporation); assay type: cell-based; settings: 48 hours, read-out: IC50 endothelial cell proliferation (BrdU DNA synthesis)
# Description: as §2
# Compounds. CTM-208 was dissolved in absolute ethanol or DMSO (0.1 M stock solution), stored at −20° C., and diluted in the culture medium immediately before use. […]
# DNA synthesis. […] DNA synthesis was evaluated by incorporation of 5-bromo-2-deoxy-uridine (BrdU) into cellular DNA 48 hours after the addition of the compounds. The amount of BrdU integrated into DNA was evaluated by using a monoclonal antibody against BrdU (cell proliferation ELISA colorimetric assay, Roche). Absorbance (l: 405 nm) was measured using a Victor microtiter plate reader (Wallac), and data were analyzed using the Allfit program.
# Effect of CTM-208 on human endothelial cell proliferation. […] At 48 hours after the addition of the compounds, DNA synthesis was evaluated by incorporation of 5-bromo-2-deoxy-uridine (BrdU) into cellular DNA. […]
# [8] = system: HSF; test: EMSA of HSF induction in human endothelial cells; assay type: cell-based
# [9] = system: human melanoma SK-MEL-28 cells; test: Annexin V staining apoptosis, SK-MEL-28 cells; assay type: cell-based; settings: 24 hour incubation, in comparison to Cisplatin, Etoposide and Vinblastine, FIG. 2
# Description: as §3
# as §4, with “Exemplary data obtained from human Burkitt lymphoma HS-Sultan cells and human melanoma SK-MEL-28 cells (24 hour incubation for SK-MEL-28 cells) are provided in FIGS. 1 and 2, respectively.” left out
# [10] = system: NF-κB; test: EMSA of NF-κB DNA-binding activity in HS-Sultan cells; assay type: cell-based; settings: Homo sapiens, FIG. 6
# Description: as §3
# Electrophoretic Mobility Shift Assay (EMSA). For nuclear extract preparation, cells (2×10^6 cells/sample) were lysed in hypotonic lysis buffer (10 mM NaCl, 3 mM MgCl2, 10 mM Tris-HCl pH 7.8, 0.5% NP40, 1 mM DTT) and then in high-salt extraction buffer (50 mM Tris-HCl, 400 mM NaCl, 1 mM EDTA, 1 mM EGTA, 1% Triton, 0.5% NP-40, 10% glycerol, 1 mM DTT, 1 mM PMSF, 0.5 μg/ml leupeptin, 0.7 μg/ml pepstatin, 0.2% aprotinin). […] Complexes were analyzed by nondenaturing 4% polyacrylamide gel electrophoresis. […] Quantitative evaluation of NF-κB-κB complex formation was determined by Typhoon-8600 Imager (Molecular Dynamics), using ImageQuant software (MDP analysis). […]
# [11] = system: NF-κB; test: EMSA of NF-κB DNA-binding activity in human endothelial cells; assay type: cell-based; settings: Endothelial cell
# Description: as §2
# Electrophoretic Mobility Shift Assay (EMSA). For nuclear extract preparation, cells (2×10^6 cells/sample) were lysed in hypotonic lysis buffer (10 mM NaCl, 3 mM MgCl2, 10 mM Tris-HCl pH 7.8, 0.5% NP40, 1 mM DTT) and then in high-salt extraction buffer (50 mM Tris-HCl, 400 mM NaCl, 1 mM EDTA, 1 mM EGTA, 1% Triton, 0.5% NP-40, 10% glycerol, 1 mM DTT, 1 mM PMSF, 0.5 μg/ml leupeptin, 0.7 μg/ml pepstatin, 0.2% aprotinin). Equal amounts of protein (6 μg/sample) were incubated with ^32P-labeled κB-DNA probe followed by analysis of DNA-binding activity by EMSA. Binding reactions were performed as described (11). Complexes were analyzed by nondenaturing 4% polyacrylamide gel electrophoresis. […] Quantitative evaluation of NF-κB-κB complex formation was determined by Typhoon-8600 Imager (Molecular Dynamics), using ImageQuant software (MDP analysis). […]
# [12] = system: NF-κB; test: EMSA of NF-κB DNA-binding activity in human keratinocytes; assay type: cell-based; settings: Keratinocyte, read-out: NF-κB
# Description: Electrophoretic Mobility Shift Assay (EMSA). For nuclear extract preparation, cells (2×10^6 cells/sample) were lysed in hypotonic lysis buffer (10 mM NaCl, 3 mM MgCl2, 10 mM Tris-HCl pH 7.8, 0.5% NP40, 1 mM DTT) and then in high-salt extraction buffer (50 mM Tris-HCl, 400 mM NaCl, 1 mM EDTA, 1 mM EGTA, 1% Triton, 0.5% NP-40, 10% glycerol, 1 mM DTT, 1 mM PMSF, 0.5 μg/ml leupeptin, 0.7 μg/ml pepstatin, 0.2% aprotinin). Equal amounts of protein (6 μg/sample) were incubated with ^32P-labeled κB-DNA probe followed by analysis of DNA-binding activity by EMSA. Binding reactions were performed as described (11). Complexes were analyzed by nondenaturing 4% polyacrylamide gel electrophoresis. Specificity of protein-DNA complexes was verified by immunoreactivity with polyclonal antibodies specific for the NF-κB subunit, p65/RelA. Quantitative evaluation of NF-κB-κB complex formation was determined by Typhoon-8600 Imager (Molecular Dynamics), using ImageQuant software (MDP analysis).
# [13] = system: NF-κB; settings: chemical or physiological inducers; cited from earlier work
# [14] = system: HSF1; settings: cited from earlier work
smiles,measurement,setting,value
"CN(Cc1cnc2nc(N)nc(N)c2n1)c1ccc(C(=O)N[C@@H](CCC(=O)O)C(=O)O)cc1 [Methotrexate, reference compound]",LD50,[1],>400 µM
same,IC50,[2],< 100 nM
same,concentration for HSF induction,[3],>400 µM
"COC(=O)[C@H](CSC1CC(=O)/C(=C/c2ccccc2)CC1O[Si](C)(C)C(C)(C)C)NC(=O)OC(C)(C)C (stereo partly drawn) [CTM-208, (R)-2-tert-Butoxycarbonylamino-3-[4E-benzylidene-2(tert-butyl-dimethylsilanyloxy)-5-oxo-cyclohexylsulfanyl]-propionic acid methyl ester]",LD50,[4],>400 µM
same,apoptosis,"[5]; 0.5 μM, 8 hour treatment",approximately 90%
same,concentration at which induction of apoptosis starts to be effective,"[5]; Annexin V-PI staining, FIG. 7",0.1 µM
same,induction of apoptosis (Annexin V-positive cells),"[5]; in comparison to 15d-PGJ2, FIG. 1",potent inducer of apoptosis
same,LD50,[1],400 µM
same,apoptosis increase over untreated control (cytoplasmic nucleosome enrichment),[6],more than 35 fold
same,IC50,[7],1600 nM
same,IC50,[2],2000 nM
same,effective concentration for HSF induction,[8],<1 µM
same,induction of apoptosis (Annexin V-positive cells),[9],potent inducer of apoptosis
same,IC50,[10],200 nM
same,IC50,[11],5 µM
same,IC50,[12],19 µM
same,concentration for HSF induction,[3],1.5 µM
O=C1C=CCC1 [cyclopent-2-en-1-one],concentration able to block NF-κB activation,[13],125 to 500 µM
same,concentration able to activate HSF1 and trigger synthesis of HSP70,[14],125 to 500 µM
